Read-outs that look alike come from different tables or passages of the source. Values belong to the compound of their own block, whether it stands above or below them.
Experiments:
[1] = tested on: RAW264.7 cells; assay: In vitro cell imaging, LPS/IFNγ-activated RAW264.7 cells; type: cell-based, mouse; conditions: for fluorescence of control compounds in these in vitro assays: RAW264.7, HEK293/COX-2 and 1483 imaging assays
Description: RAW264.7 cells (a line established from a tumor induced in a mouse by Abelson murine leukemia virus and available from the American Type Culture Collection, Manassas, Va., United States of America) were grown overnight on 35 mm culture dishes (MatTek Corp., Ashland, Mass., United States of America) with glass coverslips in Dulbecco's Modified Eagle Medium (DMEM) plus 10% heat-inactivated fetal bovine serum (FBS). Platings of cells were done in order to reach 30% confluency the next day. After overnight growth, the growth medium was replaced with 2 ml serum-free DMEM per dish. Individual dishes then received 200 ng/ml LPS plus 10 units/ml murine IFNγ (Roche Applied Science, Indianapolis, Ind., United States of America) for 6 hours to induce COX-2. […] After 30 minutes, the cells were washed briefly three times in medium and incubated in Hank's balanced salt solution (HBSS)/Tyrode's for 60 minutes at 37° C. After 60 minutes, the HBSS/Tyrode's was removed and fresh HBSS/Tyrode's was added. The cells were immediately imaged using a Zeiss Axiovert 25 Microscope (propidium iodide filter/2-3 sec exposure/gain of 2).

[2] = biological target: T1, ovine COX-1 (Ovis aries, UniProt P05979); assay: IC50 determinations using purified enzymes (TLC assay), COX-1; type: biochemical; conditions: assayed against purified enzymes
T1 construct: can be purified from ovine seminal vesicles by standard procedures; from tissue; host or cells: ovine seminal vesicles
T1 sequence (P05979 25-600): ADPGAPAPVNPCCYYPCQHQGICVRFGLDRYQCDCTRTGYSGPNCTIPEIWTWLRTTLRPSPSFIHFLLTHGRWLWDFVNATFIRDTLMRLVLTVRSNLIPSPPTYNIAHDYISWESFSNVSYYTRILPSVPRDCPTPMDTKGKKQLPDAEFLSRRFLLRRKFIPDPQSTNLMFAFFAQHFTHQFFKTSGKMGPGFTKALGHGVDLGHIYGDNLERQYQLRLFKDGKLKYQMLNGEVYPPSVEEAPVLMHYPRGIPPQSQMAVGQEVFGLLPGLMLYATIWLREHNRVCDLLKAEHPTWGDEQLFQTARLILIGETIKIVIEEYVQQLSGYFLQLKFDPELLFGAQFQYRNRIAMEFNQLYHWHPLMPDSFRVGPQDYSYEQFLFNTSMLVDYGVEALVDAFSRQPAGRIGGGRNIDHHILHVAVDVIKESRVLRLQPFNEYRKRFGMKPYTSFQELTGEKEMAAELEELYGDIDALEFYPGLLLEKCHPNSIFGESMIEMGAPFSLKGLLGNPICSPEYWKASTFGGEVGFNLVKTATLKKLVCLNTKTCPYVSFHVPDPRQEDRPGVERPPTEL
From the text: (§1) Those skilled in the art will appreciate that an evaluation of the selectivity and efficacy of binding of the NSAID derivative to the COX-2 enzyme, e.g., after the derivative is synthesized, can be desirable. […] One example of an in vitro screening method takes advantage of the fact that both human and murine recombinant COX-2 can be expressed and isolated in pure form from an Sf9 cell expression system. […] Alternatively, membrane preparations from outdated human platelets can provide a source of human COX-1. […] The reaction is stopped by the addition of ethanol/methanol/1 M citrate, pH 4.0 (30:4:1). The extracted products are separated by thin layer chromatography (TLC), which allows quantitation of total product formation as well as assessment of product distribution. This assay is useful to define IC50 values for inhibition of either enzyme, and to determine time-dependency of inhibition. It also provides information concerning changes in products formed as a result of inhibition.
(§2) Reactions were terminated by solvent extraction in Et2O/CH3OH/1 M citrate, pH 4.0 (30:4:1). The phases were separated by centrifugation at 2000 g for 5 minutes and the organic phase was spotted on a 20×20 cm TLC plate (Lieselgel 60, EMD Chemicals, Inc., Gibbstown, N.J., United States of America). The plate was developed in EtOAc/CH2Cl2/glacial AcOH (75:25:1) at 4° C. Radiolabeled prostanoid products were quantitatively determined with a radioactivity scanner available from Bioscan, Inc. (Washington, D.C., United States of America). The percentage of total products observed at different concentrations of the presently disclosed compositions was divided by the percentage of products observed for protein samples preincubated for the same amount of time with DMSO.

[3] = biological target: T2, COX-2 (Homo sapiens, UniProt P35354); assay: IC50 determinations using purified enzymes (TLC assay), COX-2; type: biochemical; design: made in house; host or cells: Sf9 insect cells
T2 sequence (P35354 18-604): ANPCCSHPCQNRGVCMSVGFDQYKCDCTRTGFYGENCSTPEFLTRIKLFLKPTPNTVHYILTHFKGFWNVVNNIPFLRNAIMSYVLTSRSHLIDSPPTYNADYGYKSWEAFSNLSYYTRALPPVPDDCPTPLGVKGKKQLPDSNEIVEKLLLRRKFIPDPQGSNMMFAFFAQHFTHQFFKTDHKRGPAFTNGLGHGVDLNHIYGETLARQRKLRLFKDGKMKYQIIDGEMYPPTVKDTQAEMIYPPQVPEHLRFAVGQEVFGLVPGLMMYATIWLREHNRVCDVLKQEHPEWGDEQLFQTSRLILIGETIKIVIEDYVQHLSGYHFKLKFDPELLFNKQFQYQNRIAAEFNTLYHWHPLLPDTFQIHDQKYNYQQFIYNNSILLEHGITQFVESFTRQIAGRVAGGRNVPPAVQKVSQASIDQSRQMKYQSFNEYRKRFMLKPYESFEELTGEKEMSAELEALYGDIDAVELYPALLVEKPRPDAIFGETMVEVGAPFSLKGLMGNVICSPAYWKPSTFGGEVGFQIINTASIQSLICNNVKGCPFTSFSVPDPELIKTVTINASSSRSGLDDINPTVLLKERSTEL
From the text: as §1, §2

[4] = biological target: T3, COX-1 (Ovis aries, UniProt P05979); conditions: literature; cited from earlier work
T3 sequence (P05979 25-600): T1 sequence (P05979 25-600)

[5] = biological target: T2, COX-2; design: 1483 Head/Neck Squamous Cell Carcinoma Cells (Sacks et al. (1988) Cancer Res 48, 2858-2866), which express COX-2; endogenous in cells; host or cells: 1483 HNSCC cells; conditions: literature; cited from earlier work
[6] = tested on: COX-1; conditions: literature; cited from earlier work
[7] = biological target: T4, COX-1 (Mus musculus, UniProt P22437); assay: Macrophage assay (RAW264.7), COX-1; type: cell-based, murine; conditions: Table 2; macrophage assay (M)
T4 sequence (P22437 1-602): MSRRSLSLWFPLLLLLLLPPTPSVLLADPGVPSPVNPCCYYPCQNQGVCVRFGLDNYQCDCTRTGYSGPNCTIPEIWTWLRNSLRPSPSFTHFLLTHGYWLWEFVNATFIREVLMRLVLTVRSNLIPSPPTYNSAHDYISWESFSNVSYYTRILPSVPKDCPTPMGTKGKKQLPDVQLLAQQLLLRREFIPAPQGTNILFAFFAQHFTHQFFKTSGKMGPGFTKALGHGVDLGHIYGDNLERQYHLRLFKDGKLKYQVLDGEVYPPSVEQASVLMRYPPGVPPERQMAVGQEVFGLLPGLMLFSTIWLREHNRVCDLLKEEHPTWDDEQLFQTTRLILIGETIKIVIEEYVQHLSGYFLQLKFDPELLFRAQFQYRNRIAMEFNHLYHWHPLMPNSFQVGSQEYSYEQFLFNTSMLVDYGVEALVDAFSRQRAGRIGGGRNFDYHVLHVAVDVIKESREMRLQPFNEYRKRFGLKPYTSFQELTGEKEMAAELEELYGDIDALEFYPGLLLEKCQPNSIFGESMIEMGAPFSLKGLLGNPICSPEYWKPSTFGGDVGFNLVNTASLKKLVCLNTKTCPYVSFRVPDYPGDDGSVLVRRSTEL
From the text: (§3) Thus, NSAID derivatives that are identified as potentially useful in the methods described herein can be further tested using, for example, the RAW264.7 murine macrophage cell line. These cells are readily available (for example, from the American Type Culture Collection (ATCC), Manassas, Va., United States of America) and are easily cultured in large numbers. They normally express low levels of COX-1 and very low to undetectable levels of COX-2. Upon exposure to bacterial lipopolysaccharide (LPS), however, COX-2 levels increase dramatically over the ensuing 24 hour period, and the cells produce PGD2 and PGE2 from endogenous arachidonic acid stores (generally, ˜1 nmol/10^7 cells total PG formation). After LPS exposure, the addition of exogenous arachidonic acid results in the formation of additional PGD2 and PGE2 as a result of metabolism by the newly synthesized COX-2.
(§4) This system provides a number of approaches for testing the inhibitory potency of COX-2-selective ligands (e.g., inhibitors). In general, following LPS activation, cells can be treated for 30 minutes with the desired concentrations of candidate derivative(s) in DMSO. ^14C-arachidonic acid can be added, and the cells can be incubated for 15 minutes at 37° C. Product formation can be assessed following extraction and TLC separation of the culture medium. Alternatively, the effects of candidate derivatives on PG synthesis from endogenous arachidonic acid can be assessed by incubating cells with desired concentrations of candidate derivatives 30 minutes prior to LPS exposure. Following a 24-hour incubation, medium can be collected and extracted, and the amount of PGD2 and/or PGE2 can be assayed by gas chromatography-mass spectrometry, liquid chromatography-mass spectrometry, or ELISA.

[8] = biological target: T5, COX-2 (Mus musculus, UniProt Q05769); assay: Macrophage assay (RAW264.7), COX-2; type: cell-based, murine; conditions: Table 2; macrophage assay (M); read-out: IC50 COX-2
T5 construct: metabolism by the newly synthesized COX-2; endogenous in cells
T5 sequence (Q05769 18-604): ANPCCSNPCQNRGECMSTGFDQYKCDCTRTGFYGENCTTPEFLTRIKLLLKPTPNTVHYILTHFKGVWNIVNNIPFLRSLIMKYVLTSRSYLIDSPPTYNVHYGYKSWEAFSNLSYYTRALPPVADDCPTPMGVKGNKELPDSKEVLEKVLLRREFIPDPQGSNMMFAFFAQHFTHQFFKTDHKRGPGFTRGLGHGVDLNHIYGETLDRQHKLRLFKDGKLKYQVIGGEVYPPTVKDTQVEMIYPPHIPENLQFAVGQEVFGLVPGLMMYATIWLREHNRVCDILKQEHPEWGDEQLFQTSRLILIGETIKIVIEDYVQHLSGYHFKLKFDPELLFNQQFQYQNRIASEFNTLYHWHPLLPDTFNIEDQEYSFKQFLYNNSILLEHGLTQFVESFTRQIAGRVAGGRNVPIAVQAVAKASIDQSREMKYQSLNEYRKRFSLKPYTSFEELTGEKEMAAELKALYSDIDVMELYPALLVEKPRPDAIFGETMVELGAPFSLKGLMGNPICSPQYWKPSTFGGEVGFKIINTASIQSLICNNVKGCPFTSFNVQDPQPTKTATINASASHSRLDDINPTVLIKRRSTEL
From the text: as §3, §4

[9] = In vitro metabolism study (esterase hydrolysis) with 1483 HNSCC cells, RP-HPLC; type: in vitro ADME; conditions: human, read-out: t1/2, disappearance of the parent conjugate (converted)
Description: (§5) An in vitro metabolism study was performed with Compound 27i using 1483 HNSCC cells to check the enzymatic (esterase) hydrolysis of the conjugate and identify metabolites up to 24 hours (h).

[10] = tested on: 1483 HNSCC cells; assay: as above; type: in vitro ADME; conditions: up to 24 hours
Description: as §5

[11] = Table 3, assayed against purified enzymes, read-out: IC50 COX-2

Compound: COc1ccc2c(c1)c(CC(=O)Nc1ccc(F)cc1)c(C)n2C(=O)c1ccc(Cl)cc1 [p-fluorophenylamide of indomethacin, indomethacin-N-(4-fluorophenyl)amide]
IC50 [4]: > 66 µM

Compound: O=C(c1ccccc1)c1ccc2n1CCC2C(=O)NCc1ccc(F)cc1 (stereo not drawn) [p-fluorobenzylamide of ketorolac]
IC50 [5]: 0.08 µM | IC50 [4]: > 65 µM

Compound: COc1ccc2c(c1)c(CC(=O)O)c(C)n2C(=O)c1ccc(Cl)cc1 [Indomethacin, indomethacin]
potency as ligand of COX-1 relative to COX-2 [6]: approximately 15 fold

Compound: COc1ccc2c(c1)c(CC(=O)NCCNC(=O)c1ccc(C(=O)[O-])c(C3=c4cc5c6c(c4Oc4c3cc3c7c4CCCN7CCC3)CCC[N+]=6CCC5)c1)c(C)n2C(=O)c1ccc(Cl)cc1 [Compound 27ww]
fluorescence imaging of cells ([1]; 200 nM, 30 minutes, LPS-activated RAW264.7): No fluorescence above background | fluorescence of control compounds in these in vitro assays [1]: minimal fluorescence | IC50 ([2]; Table 3): > 25 µM | IC50 [3, 11]: > 25 µM

Further lines, with some results ahead:

IC50 ([2]; Table 3): > 25 µM | IC50 [3, 11]: > 25 µM
Compound: COc1ccc2c(c1)c(CCNC(=O)c1ccc(C3=c4cc5c6c(c4Oc4c3cc3c7c4CCCN7CCC3)CCC[N+]=6CCC5)c(C(=O)[O-])c1)c(C)n2Cc1ccc(Br)cc1 [Compound 28f]
fluorescence of control compounds in these in vitro assays [1]: minimal fluorescence

IC50 [7]: > 5e-06 M | IC50 [8]: 1.4e-06 M | IC50 ([3]; Table 2, assayed against purified enzymes, read-out: IC50 COX-2): 8.9 µM
Compound: Cc1ccc(-c2cc(CCC(=O)O)nn2-c2ccc(S(N)(=O)=O)cc2)cc1 [Compound 30c, 3-[1-{p-(Sulfonamido)phenyl}-5-p-tolyl-1H-pyrazol-3-yl]propanoic acid]

half-life [9]: 5.5 h | parent conjugate remained [10]: 25% | IC50 ([2]; Table 1): > 4 µM | IC50 ([3]; purified enzyme, read-out: COX-2 IC50): 0.107 µM
Compound: COc1ccc2c(c1)c(CC(=O)NCCOC(=O)\C=C(C)/C=C/C=C(C)/C=C/C1=C(C)CCCC1(C)C)c(C)n2C(=O)c1ccc(Cl)cc1 [Compound 27i]
